According to US11542240B2, “STK19 inhibitors for treatment of cancer” (TRUSTEES OF BOSTON UNIVERSITY, priority 2018, dated 2023):
Like-named read-outs stand apart in the source and are kept apart here.

Columns and labels:
Test in all cases: biochemical
Format in all cases: binding
[1] = molecular target: panel of 468 diverse kinases (Homo sapiens, UniProt Q06418); conditions: TYRO3; 1000 nM; read-out: Percent Control
[2] = molecular target: panel of 468 diverse kinases (Homo sapiens, UniProt O43683); conditions: BUB1; 1000 nM; read-out: Percent Control
[3] = molecular target: panel of 468 diverse kinases (Homo sapiens, UniProt P33981); conditions: TTK; 1000 nM; read-out: Percent Control
[4] = molecular target: panel of 468 diverse kinases (Homo sapiens, UniProt P42685); conditions: FRK; 1000 nM; read-out: Percent Control
[5] = molecular target: panel of 468 diverse kinases (Homo sapiens, UniProt P10721, D816H); conditions: KIT(D816H); 1000 nM; read-out: Percent Control
[6] = molecular target: panel of 468 diverse kinases (Homo sapiens, UniProt Q9BQI3); conditions: EIF2AK1; 1000 nM; read-out: Percent Control
[7] = molecular target: panel of 468 diverse kinases (Homo sapiens, UniProt P21127); conditions: CDC2L1; 1000 nM; read-out: Percent Control
[8] = molecular target: panel of 468 diverse kinases (Homo sapiens, UniProt O15146); conditions: MUSK; 1000 nM; read-out: Percent Control
[9] = molecular target: panel of 468 diverse kinases (Homo sapiens, UniProt Q7L7X3); conditions: TAOK1; 1000 nM; read-out: Percent Control
[10] = molecular target: panel of 468 diverse kinases (Homo sapiens, UniProt Q15759); conditions: p38-beta; 1000 nM; read-out: Percent Control
[11] = molecular target: panel of 468 diverse kinases (Homo sapiens, UniProt P21709); conditions: EPHA1; 1000 nM; read-out: Percent Control
[12] = molecular target: panel of 468 diverse kinases (Homo sapiens, UniProt Q9NQU5); conditions: PAK6; 1000 nM; read-out: Percent Control
[13] = molecular target: panel of 468 diverse kinases (Homo sapiens, UniProt Q16659); conditions: ERK3; 1000 nM; read-out: Percent Control
[14] = molecular target: panel of 468 diverse kinases (Homo sapiens, UniProt P22607); conditions: FGFR3; 1000 nM; read-out: Percent Control
[15] = molecular target: panel of 468 diverse kinases (Homo sapiens, UniProt Q06187); conditions: BTK; 1000 nM; read-out: Percent Control
[16] = molecular target: panel of 468 diverse kinases (Homo sapiens, UniProt Q12851); conditions: MAP4K2; 1000 nM; read-out: Percent Control
[17] = molecular target: panel of 468 diverse kinases (Homo sapiens, UniProt Q86UE8); conditions: TLK2; 1000 nM; read-out: Percent Control
[18] = molecular target: panel of 468 diverse kinases (Homo sapiens, UniProt P23458); conditions: 1000 nM, read-out: Percent Control
[19] = molecular target: panel of 468 diverse kinases (Homo sapiens, UniProt Q09013); conditions: DMPK; 1000 nM; read-out: Percent Control
[20] = molecular target: panel of 468 diverse kinases (Homo sapiens, UniProt P54753); conditions: EPHB3; 1000 nM; read-out: Percent Control
[21] = molecular target: panel of 468 diverse kinases (Homo sapiens, UniProt P10721, V559D/V654A); conditions: KIT(V559D,V654A); 1000 nM; read-out: Percent Control
[22] = molecular target: panel of 468 diverse kinases (Homo sapiens, UniProt P07949, M918T); conditions: RET(M918T); 1000 nM; read-out: Percent Control
[23] = molecular target: panel of 468 diverse kinases (Homo sapiens, UniProt Q8WTQ7); conditions: GRK7; 1000 nM; read-out: Percent Control
[24] = molecular target: panel of 468 diverse kinases (Homo sapiens, UniProt Q9BUB5); conditions: MKNK1; 1000 nM; read-out: Percent Control
[25] = molecular target: panel of 468 diverse kinases (Homo sapiens, UniProt P30291); conditions: WEE1; 1000 nM; read-out: Percent Control
[26] = molecular target: panel of 468 diverse kinases (Homo sapiens, UniProt P22455); conditions: FGFR4; 1000 nM; read-out: Percent Control
[27] = molecular target: panel of 468 diverse kinases (Homo sapiens, UniProt P15056, V600E); conditions: BRAF(V600E); 1000 nM; read-out: Percent Control
[28] = molecular target: panel of 468 diverse kinases (Homo sapiens, UniProt P25098); conditions: GRK2; 1000 nM; read-out: Percent Control
[29] = molecular target: panel of 468 diverse kinases (Homo sapiens, UniProt Q8IW41); conditions: MAPKAPK5; 1000 nM; read-out: Percent Control
[30] = molecular target: panel of 468 diverse kinases (Homo sapiens, UniProt P08922); conditions: ROS1; 1000 nM; read-out: Percent Control
[31] = molecular target: panel of 468 diverse kinases (Homo sapiens, UniProt O96017); conditions: CHEK2; 1000 nM; read-out: Percent Control

panel of 468 diverse kinases (Homo sapiens, UniProt P22607), sequence (P22607 23-806 limits assumed): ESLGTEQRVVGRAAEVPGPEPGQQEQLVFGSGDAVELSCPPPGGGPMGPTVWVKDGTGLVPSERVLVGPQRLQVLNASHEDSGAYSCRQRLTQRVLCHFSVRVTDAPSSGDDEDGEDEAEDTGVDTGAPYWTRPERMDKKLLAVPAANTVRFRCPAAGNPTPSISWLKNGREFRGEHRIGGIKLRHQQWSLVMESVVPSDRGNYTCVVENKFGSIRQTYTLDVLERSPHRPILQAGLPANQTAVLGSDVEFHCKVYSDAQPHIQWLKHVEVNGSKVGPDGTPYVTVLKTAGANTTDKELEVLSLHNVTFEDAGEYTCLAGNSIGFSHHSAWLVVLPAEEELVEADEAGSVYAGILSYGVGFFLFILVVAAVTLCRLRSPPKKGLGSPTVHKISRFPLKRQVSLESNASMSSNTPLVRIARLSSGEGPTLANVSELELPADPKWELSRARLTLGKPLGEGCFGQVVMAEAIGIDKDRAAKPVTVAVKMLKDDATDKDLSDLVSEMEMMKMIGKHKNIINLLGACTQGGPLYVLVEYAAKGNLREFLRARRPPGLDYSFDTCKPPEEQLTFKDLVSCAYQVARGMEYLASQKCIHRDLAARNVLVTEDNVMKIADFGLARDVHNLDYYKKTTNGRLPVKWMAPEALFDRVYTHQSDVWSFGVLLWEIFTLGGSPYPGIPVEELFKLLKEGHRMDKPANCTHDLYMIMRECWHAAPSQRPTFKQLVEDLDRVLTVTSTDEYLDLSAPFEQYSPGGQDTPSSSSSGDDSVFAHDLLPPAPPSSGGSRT
panel of 468 diverse kinases (Homo sapiens, UniProt P10721, D816H), sequence (P10721 26-976 D816H limits assumed): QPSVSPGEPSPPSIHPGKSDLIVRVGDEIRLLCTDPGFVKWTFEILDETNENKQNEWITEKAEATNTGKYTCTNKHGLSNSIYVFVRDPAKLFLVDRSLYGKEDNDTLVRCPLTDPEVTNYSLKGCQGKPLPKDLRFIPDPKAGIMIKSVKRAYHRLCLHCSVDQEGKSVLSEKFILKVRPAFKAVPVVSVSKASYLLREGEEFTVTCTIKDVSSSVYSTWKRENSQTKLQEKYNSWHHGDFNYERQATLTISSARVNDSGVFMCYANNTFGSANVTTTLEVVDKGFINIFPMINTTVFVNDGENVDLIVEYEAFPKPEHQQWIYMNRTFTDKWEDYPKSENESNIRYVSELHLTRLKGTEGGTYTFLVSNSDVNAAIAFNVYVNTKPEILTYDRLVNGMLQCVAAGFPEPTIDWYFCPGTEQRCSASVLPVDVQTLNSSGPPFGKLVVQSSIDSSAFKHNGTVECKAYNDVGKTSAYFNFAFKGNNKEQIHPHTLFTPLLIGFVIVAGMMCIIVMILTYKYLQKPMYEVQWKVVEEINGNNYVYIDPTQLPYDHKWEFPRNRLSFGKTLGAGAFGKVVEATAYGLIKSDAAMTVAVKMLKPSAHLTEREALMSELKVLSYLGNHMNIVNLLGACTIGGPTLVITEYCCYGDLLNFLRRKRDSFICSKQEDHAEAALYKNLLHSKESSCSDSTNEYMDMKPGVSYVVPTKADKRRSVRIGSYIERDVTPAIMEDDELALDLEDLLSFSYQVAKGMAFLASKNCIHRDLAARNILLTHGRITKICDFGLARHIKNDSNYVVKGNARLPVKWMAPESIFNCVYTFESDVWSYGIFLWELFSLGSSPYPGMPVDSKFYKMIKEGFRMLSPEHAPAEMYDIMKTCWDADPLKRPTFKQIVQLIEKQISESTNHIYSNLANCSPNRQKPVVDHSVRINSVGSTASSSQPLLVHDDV
panel of 468 diverse kinases (Homo sapiens, UniProt Q06418), sequence (Q06418 41-890 limits assumed): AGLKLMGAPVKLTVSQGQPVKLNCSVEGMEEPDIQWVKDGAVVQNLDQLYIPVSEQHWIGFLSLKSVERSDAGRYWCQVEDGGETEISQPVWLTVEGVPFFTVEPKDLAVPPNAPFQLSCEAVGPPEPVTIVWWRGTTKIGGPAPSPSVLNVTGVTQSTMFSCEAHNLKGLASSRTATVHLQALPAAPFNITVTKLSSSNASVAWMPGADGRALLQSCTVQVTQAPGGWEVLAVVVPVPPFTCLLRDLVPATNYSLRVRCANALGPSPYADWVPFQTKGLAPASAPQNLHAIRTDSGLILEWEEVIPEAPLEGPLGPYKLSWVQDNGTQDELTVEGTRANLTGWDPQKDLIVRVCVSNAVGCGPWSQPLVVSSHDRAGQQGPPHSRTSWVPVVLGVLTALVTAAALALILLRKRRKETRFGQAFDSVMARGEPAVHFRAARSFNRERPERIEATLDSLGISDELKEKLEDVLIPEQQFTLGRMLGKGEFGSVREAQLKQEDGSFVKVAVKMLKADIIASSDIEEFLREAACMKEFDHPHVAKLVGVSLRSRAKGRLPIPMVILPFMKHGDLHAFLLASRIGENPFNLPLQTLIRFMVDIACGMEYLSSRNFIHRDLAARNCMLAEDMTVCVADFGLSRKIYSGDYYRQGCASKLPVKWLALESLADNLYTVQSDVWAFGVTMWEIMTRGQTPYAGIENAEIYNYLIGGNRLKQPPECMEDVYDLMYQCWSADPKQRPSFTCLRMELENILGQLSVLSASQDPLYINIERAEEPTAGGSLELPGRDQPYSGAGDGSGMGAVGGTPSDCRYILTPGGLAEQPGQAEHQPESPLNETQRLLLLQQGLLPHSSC
panel of 468 diverse kinases (Homo sapiens, UniProt Q06187), sequence (Q06187 2-659 limits assumed): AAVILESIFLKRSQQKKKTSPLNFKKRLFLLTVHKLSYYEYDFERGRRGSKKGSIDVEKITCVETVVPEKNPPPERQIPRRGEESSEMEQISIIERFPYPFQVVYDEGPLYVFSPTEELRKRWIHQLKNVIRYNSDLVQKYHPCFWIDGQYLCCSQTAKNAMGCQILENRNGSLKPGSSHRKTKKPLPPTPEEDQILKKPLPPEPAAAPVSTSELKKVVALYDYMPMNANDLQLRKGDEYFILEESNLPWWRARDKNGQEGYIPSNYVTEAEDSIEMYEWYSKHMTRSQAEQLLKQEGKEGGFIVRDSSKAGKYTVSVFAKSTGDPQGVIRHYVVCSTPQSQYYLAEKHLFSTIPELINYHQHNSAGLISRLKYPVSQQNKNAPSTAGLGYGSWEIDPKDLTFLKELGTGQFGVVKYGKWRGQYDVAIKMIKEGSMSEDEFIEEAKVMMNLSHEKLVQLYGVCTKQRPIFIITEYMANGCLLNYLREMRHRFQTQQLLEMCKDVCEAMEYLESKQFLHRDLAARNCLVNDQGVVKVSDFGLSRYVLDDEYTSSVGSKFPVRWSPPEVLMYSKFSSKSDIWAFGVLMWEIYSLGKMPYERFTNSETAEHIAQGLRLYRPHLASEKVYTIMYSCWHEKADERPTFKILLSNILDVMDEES
panel of 468 diverse kinases (Homo sapiens, UniProt P07949, M918T), sequence (P07949 29-1114 M918T limits assumed): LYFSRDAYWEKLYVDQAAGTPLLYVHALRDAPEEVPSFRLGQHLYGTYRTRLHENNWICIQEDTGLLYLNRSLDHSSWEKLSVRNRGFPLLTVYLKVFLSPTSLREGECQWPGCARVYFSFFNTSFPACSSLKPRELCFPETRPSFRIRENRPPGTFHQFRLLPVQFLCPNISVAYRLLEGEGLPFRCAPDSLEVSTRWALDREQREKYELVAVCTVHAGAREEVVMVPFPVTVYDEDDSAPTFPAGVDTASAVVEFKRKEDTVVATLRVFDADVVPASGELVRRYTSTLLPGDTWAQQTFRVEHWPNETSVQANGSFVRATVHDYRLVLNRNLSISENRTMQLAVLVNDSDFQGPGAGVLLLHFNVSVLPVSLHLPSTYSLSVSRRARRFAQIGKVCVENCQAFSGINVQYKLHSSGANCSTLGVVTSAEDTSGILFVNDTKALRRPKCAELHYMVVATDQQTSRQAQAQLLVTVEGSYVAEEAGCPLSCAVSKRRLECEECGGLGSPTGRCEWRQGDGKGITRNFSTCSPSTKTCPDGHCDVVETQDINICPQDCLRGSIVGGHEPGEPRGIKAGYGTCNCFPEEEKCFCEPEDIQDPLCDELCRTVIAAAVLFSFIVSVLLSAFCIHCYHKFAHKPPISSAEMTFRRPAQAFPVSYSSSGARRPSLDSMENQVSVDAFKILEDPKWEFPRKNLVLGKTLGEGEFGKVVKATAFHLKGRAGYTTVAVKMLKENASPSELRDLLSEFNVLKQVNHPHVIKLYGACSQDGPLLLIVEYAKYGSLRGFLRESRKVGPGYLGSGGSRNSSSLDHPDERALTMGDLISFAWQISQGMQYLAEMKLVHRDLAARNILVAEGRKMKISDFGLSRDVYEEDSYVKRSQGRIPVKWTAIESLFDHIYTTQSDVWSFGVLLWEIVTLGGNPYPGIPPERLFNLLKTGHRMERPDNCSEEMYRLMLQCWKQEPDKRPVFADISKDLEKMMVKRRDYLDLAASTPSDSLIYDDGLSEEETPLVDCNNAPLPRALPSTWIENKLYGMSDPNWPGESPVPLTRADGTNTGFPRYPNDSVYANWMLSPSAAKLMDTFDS
panel of 468 diverse kinases (Homo sapiens, UniProt P15056, V600E), sequence (P15056 2-766 V600E limits assumed): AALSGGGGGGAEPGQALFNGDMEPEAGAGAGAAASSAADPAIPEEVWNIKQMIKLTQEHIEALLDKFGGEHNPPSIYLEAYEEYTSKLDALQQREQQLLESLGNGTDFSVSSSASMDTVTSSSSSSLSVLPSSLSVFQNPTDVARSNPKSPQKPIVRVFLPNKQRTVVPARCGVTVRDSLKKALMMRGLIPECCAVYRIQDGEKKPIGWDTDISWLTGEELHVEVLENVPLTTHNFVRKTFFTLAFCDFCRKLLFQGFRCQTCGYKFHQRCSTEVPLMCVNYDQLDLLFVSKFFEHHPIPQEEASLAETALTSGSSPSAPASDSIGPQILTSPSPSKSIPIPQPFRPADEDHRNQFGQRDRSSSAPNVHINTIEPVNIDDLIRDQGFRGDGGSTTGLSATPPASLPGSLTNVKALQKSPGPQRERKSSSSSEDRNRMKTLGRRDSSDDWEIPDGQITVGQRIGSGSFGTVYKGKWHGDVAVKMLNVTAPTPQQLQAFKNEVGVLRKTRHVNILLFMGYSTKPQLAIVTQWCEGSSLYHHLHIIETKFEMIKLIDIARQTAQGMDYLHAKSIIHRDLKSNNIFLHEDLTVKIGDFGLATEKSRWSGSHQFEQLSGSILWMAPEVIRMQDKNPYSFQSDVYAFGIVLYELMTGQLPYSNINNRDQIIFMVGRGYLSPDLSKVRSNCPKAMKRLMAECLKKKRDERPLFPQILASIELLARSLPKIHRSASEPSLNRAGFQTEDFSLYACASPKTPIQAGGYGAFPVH

## COc1cc2nc(NC3CC3)nc(NC3CCN(C(C)C)CC3)c2cc1OC [Formula IV]
[1]
  remaining activity at 1 µM: 100%
[2]
  remaining activity at 1 µM: 63%
[3]
  remaining activity at 1 µM: 85%
[4]
  remaining activity at 1 µM: 100%
[5]
  remaining activity at 1 µM: 78%
[6]
  remaining activity at 1 µM: 73%
[7]
  remaining activity at 1 µM: 100%
[8]
  remaining activity at 1 µM: 83%
[9]
  remaining activity at 1 µM: 100%
[10]
  remaining activity at 1 µM: 87%
[11]
  remaining activity at 1 µM: 100%
[12]
  remaining activity at 1 µM: 91%
[13]
  remaining activity at 1 µM: 90%
[14]
  remaining activity at 1 µM: 100%
[15]
  remaining activity at 1 µM: 89%
[16]
  remaining activity at 1 µM: 87%
[17]
  remaining activity at 1 µM: 100%
[18]; JAK1(JH1domain-catalytic)
  remaining activity at 1 µM: 96%
[18]; JAK1(JH2domain-pseudokinase)
  remaining activity at 1 µM: 51%
[19]
  remaining activity at 1 µM: 99%
[20]
  remaining activity at 1 µM: 100%
[21]
  remaining activity at 1 µM: 76%
[22]
  remaining activity at 1 µM: 85%
[23]
  remaining activity at 1 µM: 90%
[24]
  remaining activity at 1 µM: 100%
[25]
  remaining activity at 1 µM: 100%
[26]
  remaining activity at 1 µM: 100%
[27]
  remaining activity at 1 µM: 89%
[28]
  remaining activity at 1 µM: 83%
[29]
  remaining activity at 1 µM: 63%
[30]
  remaining activity at 1 µM: 90%
[31]
  remaining activity at 1 µM: 100%
